One series concerns MV4-11-luc cells. The series can be described thus: MV4-11-luc AML model in NSG mice. The following applies: MV4-11-luc in NSG mice, 0.5 mg/kg DAC i.p. daily alone.
In the next series the test system is CT26.CL25 cells. As to the kind of experiment: CT26.CL25 colon cancer model in B6 mice with/without CD8 depletion. The note with it: CT26.CL25 s.c. in B6 mice, MC180295 20 mg/kg i.p. q.o.d., DAC 0.5 mg/kg i.p. daily. It is filed as in vivo. The method, then: Fig. 5 Survival and antitumor effects of MC180295, DAC, or their combination, with/without CD8 + T cells. A 20 mg/kg MC180295 was administered (i.p.) q.o.d. 0.5 mg/kg DAC was administered (i.p.) daily. Mouse survival in days. B Survival of B6 mice, after CD8 depletion, using an anti-CD8 antibody. 20 mg/kg MC180295 was administered (i.p.) q.o.d. 0.5 mg/kg DAC was administered (i.p.) daily. C Antitumor effects of MC180295 with and without CD8 depletion, using an anti-CD8 antibody. B6 mice were inoculated (s.c.) with 5 × 10^5 CT26.CL25 cells. Eight days later, when tumors were palpable, 20 mg/kg MC180295 was administered (i.p.) q.o.d. 0.5 mg/kg DAC was administered (i.p.) daily. Tumor sizes were measured using a caliper and calculated over vehicle. D Antitumor effects of DAC, with and without CD8 depletion, using an anti-CD8 antibody. B6 mice were inoculated (s.c.) with 5 × 10^5 CT26.CL25 cells. Eight days later, when tumors were palpable, 20 mg/kg MC180295 was administered (i.p.) q.o.d. 0.5 mg/kg DAC was administered (i.p.) daily. Tumor sizes were measured using a caliper and calculated over vehicle. E Antitumor effects of DAC + MC180295, with and without CD8 depletion, using an anti-CD8 antibody. B6 mice were inoculated (s.c.) with 5 × 10^5 CT26.CL25 cells. Eight days later, when tumors were palpable, 20 mg/kg MC180295 was administered (i.p.) q.o.d. 0.5 mg/kg DAC was administered (i.p.) daily. Tumor sizes were measured using a caliper and calculated over vehicle. Significances were calculated using log-rank (Mantel-Cox) or Student's T tests. Data shown as means ± SEMs
For the s.c. SW48 model, 2 × 10^6 cells were injected into the flanks of randomly assigned, gender-matched 8–10-week-old NSG mice. 20 mg/kg MC180379, MC180380, or MC180295 was injected (i.p.), every other day, when the tumors were palpable, 11 days after engraftment, until endpoints were met. Mice were sacrificed before tumor volumes exceeded 400 mm^2 (endpoint for this model). For the s.c. HT29 model, 2 × 10^6 cells were injected into the flanks of randomly assigned, gender-matched, 8–10-week-old NSG mice. […]

Series [1] is described as follows: Drug toxicity: body weights and complete blood counts in tumor-bearing mice. The following applies: MV4-11 model, NSG mice, Fig. S4D. The series is classed as in vivo.
The next series concerns the target T1, CDK9 (Homo sapiens, UniProt P50750).
T1 construct: purchased Reaction Biology Corp
Also noted: method as in PMID 26083714. The following applies: cited from earlier work.

T1 sequence (P50750 whole entry): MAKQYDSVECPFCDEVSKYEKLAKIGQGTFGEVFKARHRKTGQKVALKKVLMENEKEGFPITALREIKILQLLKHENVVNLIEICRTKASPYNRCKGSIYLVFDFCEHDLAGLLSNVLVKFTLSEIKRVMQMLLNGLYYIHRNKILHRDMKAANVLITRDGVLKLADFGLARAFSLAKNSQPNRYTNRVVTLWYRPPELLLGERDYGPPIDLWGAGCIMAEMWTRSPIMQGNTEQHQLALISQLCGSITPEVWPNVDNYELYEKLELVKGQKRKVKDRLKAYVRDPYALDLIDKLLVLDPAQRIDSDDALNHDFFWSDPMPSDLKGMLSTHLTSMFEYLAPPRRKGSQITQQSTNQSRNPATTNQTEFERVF
T1 sequence (O60563 whole entry partner): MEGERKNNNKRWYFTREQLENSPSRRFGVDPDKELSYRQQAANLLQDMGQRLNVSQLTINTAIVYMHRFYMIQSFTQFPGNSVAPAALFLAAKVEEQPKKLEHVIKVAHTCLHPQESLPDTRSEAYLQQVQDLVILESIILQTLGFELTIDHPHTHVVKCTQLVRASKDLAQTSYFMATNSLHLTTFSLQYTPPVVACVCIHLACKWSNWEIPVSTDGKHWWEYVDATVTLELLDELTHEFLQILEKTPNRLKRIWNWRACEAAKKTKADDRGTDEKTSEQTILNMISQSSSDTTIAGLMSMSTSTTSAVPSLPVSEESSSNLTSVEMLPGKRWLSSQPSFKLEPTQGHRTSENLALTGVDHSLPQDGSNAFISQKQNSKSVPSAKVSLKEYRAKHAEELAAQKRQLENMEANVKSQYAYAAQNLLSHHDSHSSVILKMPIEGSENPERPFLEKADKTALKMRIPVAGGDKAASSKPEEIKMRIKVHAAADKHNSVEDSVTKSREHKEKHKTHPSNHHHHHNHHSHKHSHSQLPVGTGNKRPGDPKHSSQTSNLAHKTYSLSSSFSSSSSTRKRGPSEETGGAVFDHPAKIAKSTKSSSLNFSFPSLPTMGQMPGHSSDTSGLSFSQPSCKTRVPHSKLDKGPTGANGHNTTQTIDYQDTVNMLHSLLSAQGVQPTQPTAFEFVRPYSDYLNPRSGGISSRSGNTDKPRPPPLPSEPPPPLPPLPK
Experimental for MV4-11-luc cells: E NSG mice were inoculated (i.p.) with 5 × 10^5 MV4-11-luc cells. Four days later, when substantial tumor burden was evident by bioluminescence imaging, MC180379, MC180380, or vehicle were administered (i.p.) q.o.d at 20 mg/kg. Luciferase expression was quantified and calculated. F Mouse survival in days. […] Significances were calculated using log-rank (Mantel-Cox) or Student’s t tests.
0.5 mg/kg DAC was administered (i.p.) daily. […] B Mouse survival in days. 20 mg/kg MC180295 was administered (i.p.) q.o.d. 0.5 mg/kg DAC was administered (i.p.) daily. C NSG mice were inoculated (i.p.) with 5 × 10^5 MV4-11-luc cells. Four days later, when substantial tumor burden was evident by bioluminescence imaging, MC180295 (20 mg/kg) or vehicle were administered (i.p.) every other day. 0.5 mg/kg DAC was administered (i.p.) daily. Luciferase expression was quantified and calculated. […] 0.5 mg/kg DAC was administered (i.p.) daily. Mouse survival shown in days. Significances were calculated using log-rank (Mantel-Cox) or Student's t tests. Data are shown as means ± SEMs. ***p < 0.001
Both female and male NOD.Cg-Prkdcscid Il2rgtm1Wjl/SzJ (NSG) mice were used for the experiments. Age- and gender-matched mice were randomly assigned to each group. 8–10-week-old NSG mice were tail vein-injected with 5 × 10^5 MV4-11-luc cells. […] Natural death or accumulation of ascites fluid were used as endpoints.

With `Nc1ncn([C@H]2C[C@H](O)[C@@H](CO)O2)c(=O)n1` [DAC, decitabine, reference compound], in the series on MV4-11-luc cells, the survival entry was “did not show consistent tumor suppression or a survival benefit” and the “tumor suppression (luciferase)” value was “did not show consistent tumor suppression”. The tumor size result in the series on CT26.CL25 cells is given as “significantly decrease tumor size, in a CD8 + T cell-dependent manner”. Moreover, the body weights result in series [1] is reported as “did not affect NSG mouse body weights”.

With `NC1CCC(Nc2cc(-c3cccc(NCc4cccc(F)c4)n3)c(Cl)cn2)CC1` (centres unmarked) [iCDK9], the “selectivity toward CDK9, compared to CDKs 1, 2, 4, 7, and 8” value on CDK9 is “more than 600 fold”.
